Moisture sorption data for one compound are collected here from US11339148B2, “Crystalline forms of the CXCR7 receptor antagonist (3S,4S)-1-Cyclopropylmethyl-4-{[5-(2,4-difluoro-phenyl)-isoxazole-3-carbonyl]-amino}-piperidine-3-carboxylic acid (1-pyrimidin-2-yl-cyclopropyl)-amide” (IDORSIA PHARMACEUTICALS LTD., priority 2018, dated 2022).

The data set in a line: Gravimetric vapour sorption (GVS) / moisture sorption. It counts as physicochemical. As to conditions: at 95% RH; 25° C. As to the method:
Gravimetric Vapour Sorption (GVS) Analysis
Measurements are performed on a multi sample instrument SPS-100n (Projekt Messtechnik, Ulm, Germany) operated in stepping mode at 25° C.

As for `O=C(N[C@H]1CCN(CC2CC2)C[C@@H]1C(=O)NC1(c2ncccn2)CC1)c1cc(-c2ccc(F)cc2F)on1` [Example 2, (3S,4S)-1-Cyclopropylmethyl-4-{[5-(2,4-difluoro-phenyl)-isoxazole-3-carbonyl]-amino}-piperidine-3-carboxylic acid (1-pyrimidin-2-yl-cyclopropyl)-amide in Crystalline Form 2], the Moisture sorption entry was “Sorption of 6.9% at 95% RH”.
